First: CSCc1cccc(-c2nc(=O)c3ccccc3s2)n1
Second: Cc1cccc(C)c1-n1cnc(NCc2ccccn2)nc1=O
The melting point of the first is lower: 152 to 153 °C for the first, 165 to 166 °C for the second.

First: CCCn1c(CC)ccc1Cc1cccc(NC(N)=O)c1
Second: CCOC(=O)c1cc2c(OCc3ccccc3)cccc2n1C
The melting point of the first is lower: 59 to 61 °C for the first, 89 to 90.5 °C for the second.

Compared with `COC(=O)c1cc(Cl)cc(N)c1O`, `CCOC(=O)CC(=O)c1cc(C#N)ccc1F` is lower in melting point: 65 to 67 °C for the first, 55 to 60 °C for the second.

First: c1nnc2c3c(c(NCCN4CCCC4)nn12)CCCC3
Second: O=C(NC1CCC(CCN2CCN(c3nccc4c3OCC4)CC2)CC1)C1CCCOC1 (racemic)
The melting point of the first is lower: 160 to 162 °C for the first, 203 °C for the second.

First: Cc1c(O)cc2c(c1C)CCC2c1c[nH]cn1 (configuration not stated)
Second: CCOC(=O)c1[nH]c2cccc3c2c1CCC3O (configuration not stated)
The melting point of the first is higher: 198 to 202 °C for the first, 166 to 170 °C for the second.

Compared with `CC(C)CCCC(C)C1CCC2C3CC=C4CC(OC(=O)OCC(N)C(=O)O)CCC4(C)C3CCC12C` (configuration not stated), `CC(=O)C1CCC2C3CCC4=CC(=O)C=CC4(C)C3CCC12CO[N+](=O)[O-]` (configuration not stated) is higher in melting point: 147 °C for the first, 148 to 150 °C for the second.

Compared with `CCCc1nc2c(N)nc3ccccc3c2n1Cc1cc(-c2ccc(F)cc2)no1`, `NS(=O)(=O)c1cccc(-c2noc(-c3cnn4ccc(-c5ccc(Cl)cc5)nc34)n2)c1` is lower in melting point: 226 to 227 °C for the first, 223 °C for the second.

First: CCNC(=O)c1ccc(N2CCN(Cc3cc(C)c4c(c3)NC(=O)C(C)O4)CC2)c(F)c1 (configuration not stated)
Second: COc1ccc(N2CCN(c3c(C)c(C)c4c(c3C)CC(C)(Cn3cccn3)O4)CC2)cc1 (configuration not stated)
The melting point of the first is higher: 242 to 245 °C for the first, 117 to 120 °C for the second.

Compared with `Clc1ccc2c(C3CCN(CCCC4Cc5ccccc5C4)CC3)c[nH]c2c1`, `CC(C)CCn1cc(C2CCN(CCOc3ccccc3C(=O)O)CC2)c2ccccc21` is higher in melting point: 134 to 135 °C for the first, 150 to 151 °C for the second.

First: COc1ccc(C(=O)Nc2ccccc2)cc1NC(=S)Nc1cccc([N+](=O)[O-])c1
Second: COc1ccc(C(=NN)Nc2ccc([N+](=O)[O-])cc2)cc1
The melting point of the first is higher: 188 to 189 °C for the first, 104 °C for the second.

First: CCOC(=O)C(C(=O)OCC)N(Cc1ccccc1)Cc1ccc(OC)cc1OC
Second: COc1ccc(C(=O)O)c(COc2ccc(CC(=O)O)cc2)c1
The melting point of the first is lower: 62 to 63 °C for the first, 198 to 200 °C for the second.

First: Cc1cn(Cc2ccccc2)c(=O)[nH]c1=O
Second: CC(C)[C@@H]1COC(=O)N1C(=O)CCc1ccccc1
The melting point of the first is higher: 170 to 173 °C for the first, 62 °C for the second.

First: COc1cccc(OC)c1C(=O)Nc1nnc(-c2ccc(O)cc2)s1
Second: COc1ccc(CCc2ccc(NC(=O)c3ccc(C)cc3O)cc2)cc1OC
The melting point of the first is higher: greater than 260 °C for the first, 162 to 164 °C for the second.

Compared with `Cc1c(Cl)ccc(C(=O)c2cnn(C)c2O)c1Cl`, `Fc1ccc(Cl)c(-c2c(Cl)nc3ncnn3c2Cl)c1` is higher in melting point: 131 to 135 °C for the first, 137 °C for the second.

Compared with `Cc1cc(CCCCCOc2c(Cl)cc(-c3nnc(C)o3)cc2Cl)on1`, `CCCCOc1c(CNC(=O)OC(C)(C)C)n(CC(C)C)c(=O)c2ccc(-c3nc(C)c(C#N)s3)cc12` is higher in melting point: 71 to 72 °C for the first, 148 to 150 °C for the second.

First: COC(=O)[C@H]1C[C@H](NC(=O)Cc2ccccc2)c2c(Cl)cc(Cl)cc2N1 (relative stereo)
Second: CC(C)(C)NC(=O)CC(Cc1cccc2ccccc12)C(=O)O (configuration not stated)
The melting point of the first is higher: 226 to 228 °C for the first, 188 to 190 °C for the second.

Going from `C=C(C)C(=O)NOC(=O)C(=C)C` to `CCOC(=O)C1=C(C)NC(NC(C)=O)=C(C(=O)OCC)C1C` (configuration not stated), the melting point rises from 55 °C to 105 °C.

First: CCCCOC1OC(CO)C(O)C(O)C1(O)N(CC)C(=O)N(CCCl)N=O (configuration not stated)
Second: CC(C)CNC(=O)C=CC=CCCCCCCCOc1cccc(Cl)n1
The melting point of the first is higher: 87 to 89 °C for the first, 80 to 81 °C for the second.

First: COc1ccc(-c2ccc(OC3SCC(OC(C)=O)C(OC(C)=O)C3OC(C)=O)cn2)cn1 (configuration not stated)
Second: CC(=O)Oc1cnc2c(OC(C)=O)cccc2c1
The melting point of the first is lower: 74 °C for the first, 101 to 102 °C for the second.

First: Cc1cc(C=Cc2ccccc2OCC(O)C(N)C(C)C)on1 (configuration not stated)
Second: CC(C)CCC(=O)N[C@@H]1N=C(c2ccccc2)c2ccccc2N(C)C1=O
The melting point of the first is lower: 106 to 108 °C for the first, 123 to 125 °C for the second.

First: O=C1Nc2ccc(Br)cc2C2(CCCC2)O1
Second: CC(=O)Nc1cc(Br)ccc1S(C)(=O)=O
The melting point of the first is higher: 180 to 185 °C for the first, 157 to 160 °C for the second.

First: CCCCCCCCCCCCNC(=O)ON=C(C1=C(Br)C(=O)C(C)(C)O1)c1ccccc1
Second: O=C(OCc1cc(OCCCO)c(OCCCO)c(OCCCO)c1)c1ccccc1
The melting point of the first is higher: 61.5 to 62.5 °C for the first, 54 to 55 °C for the second.

Compared with `CCc1sc2nc(C(=O)O)cn2c1C`, `Cc1c(Cc2cccnc2)sc2ccc(C(=O)O)cc12` is lower in melting point: 243 to 245 °C for the first, 230 to 232 °C for the second.

Compared with `CC(=O)Nc1ccc(C(=O)O)c2c1OCCO2`, `COC(=O)c1nn(-c2ccccc2)c2sc(CN3CCOCC3)cc2c1=O` is lower in melting point: 233 °C for the first, 167 to 169 °C for the second.

First: CSC1NC(=O)N(C(C)C)C(=O)N1C (configuration not stated)
Second: CN(C)c1nn(-c2c(Cl)cc(C(F)(F)F)cc2Cl)c(=O)n1C
The melting point of the first is lower: 73 to 75 °C for the first, 105 to 107 °C for the second.

First: CCCCN(C(=O)c1cnc(N2CC(C)(C)NC2=O)nc1N)c1cccc(C(F)(F)F)c1
Second: C[C@](O)(CNC(=O)c1cnc(OCC(F)(F)F)c(-c2ccc(Cl)cc2)n1)C1CC1
The melting point of the first is higher: 154 to 155 °C for the first, 96 to 97 °C for the second.

Compared with `N#Cc1cccc(C2=Nc3ccc(C#Cc4ccc(F)cc4F)cc3NC(=O)C2)c1`, `Cn1nc(-c2c(F)cccc2Cl)nc1-c1cc(-c2ccc(OC(F)(F)F)cc2)sc1Br` is lower in melting point: 240 to 246 °C for the first, 135 to 136 °C for the second.

Compared with `CC(NC(=O)NC1N=C(c2ccccc2)c2ccccc2N(C)C1=O)c1ccccc1` (configuration not stated), `c1ccc(COc2cc(-c3ccccn3)nc(-c3cccc(-c4ccccc4)n3)c2)cc1` is higher in melting point: 146 to 150 °C for the first, 182 °C for the second.

First: CCOC(=O)C(O)(CC(C)(C)c1cc(F)ccc1OC)C(F)(F)F (configuration not stated)
Second: CCCCCCNc1ccc(OC2CCN(C(=O)OC(C)(C)C)CC2)cc1
The melting point of the first is lower: 38 to 39 °C for the first, 46 to 47 °C for the second.

Compared with `COc1ccc2cc([C@H](C)C(=O)OCCOc3ccc(OCCO[N+](=O)[O-])cc3)ccc2c1`, `COC(=O)C(=O)c1ccc(OCCOc2ccnc3ccccc23)cc1` is higher in melting point: 67 to 69 °C for the first, 135 to 136 °C for the second.

Compared with `CC(C)(C)c1ccc(-c2cc(Nc3ccc4[nH]ccc4c3)nnc2-c2ccccc2)cc1`, `NS(=O)(=O)c1ccc(-n2nc(CCCNC(=O)Nc3ccc(C(F)(F)F)cc3)cc2-c2ccccc2)cc1` is higher in melting point: 138 to 140 °C for the first, 185 to 186 °C for the second.

First: CC(C)(C)OC(=O)N(C1CCNCC1)C1CCOCC1
Second: CN(Cc1ccc(NC(=O)C2=Cc3cc(-c4ccc(N5CCCC5)cc4)ccc3OCC2)cc1)C1CCOCC1
The melting point of the first is lower: 104 °C for the first, 210 to 211 °C for the second.

First: COc1cc(C(=O)NCC(=O)O)ccc1NS(=O)(=O)c1sc2ccc(Cl)cc2c1C
Second: O=C(O)c1cc(NS(=O)(=O)c2ccc([N+](=O)[O-])cc2)ccc1O
The melting point of the first is higher: 282 to 285 °C for the first, 239 to 240 °C for the second.

First: c1ccc(C2=NOC3(CCNCC3)C2)cc1
Second: O=C(c1nc(-c2ccccc2)nc2ccccc12)N1CCCC1
The melting point of the first is lower: 115 °C for the first, 153 °C for the second.

First: NC(=O)CCC(=NNC(N)=S)c1ccccc1
Second: CC(C)C(=O)N[C@@H](CSC(=O)c1ccccc1)C(=O)NCCSC(=O)c1ccccc1
The melting point of the first is higher: 186 to 188 °C for the first, 154 to 156 °C for the second.

Going from `C#CCN(C)c1c(-c2c(F)cc(F)cc2F)c(OC)nc2ncnn12` to `Cc1coc(C(=O)c2ccc(F)c(F)c2Nc2ccc(I)cc2F)n1`, the melting point rises from 119 °C to 127 °C.

First: C=CCN(c1ccccc1)c1cc2c(cc1N(CC=C)c1ccccc1)C(=O)NC2=O
Second: O=C1NC(Cc2ccc(OCc3ccccc3)cn2)C(=O)NC1Cc1ccccc1 (configuration not stated)
The melting point of the first is lower: 122 to 127 °C for the first, 215 to 218 °C for the second.

Compared with `CCC1(CC)C(=O)N(C(C)(C)C)CC(C)(C)N1OC(C)(C)C#N`, `Cc1ccc2c(c1)N(CC(=O)c1ccccc1C)C(=O)C(NC(=O)Nc1ccc(F)c(C(=O)O)c1)CN2C(=O)C(C)(C)C` (configuration not stated) is higher in melting point: 68 to 71 °C for the first, 225 to 228 °C for the second.

Compared with `Cc1cccc(-c2sc(N)nc2-c2ccnc(-c3ccc(C(=O)NC4CCOCC4)cc3)c2)n1`, `Cc1cccc(C(=O)NC(Nc2c(Nc3cccnc3)c(=O)c2=O)C(C)(C)Cc2ccncc2)c1` (configuration not stated) is lower in melting point: 283 °C for the first, 219 to 221 °C for the second.

First: CC(=O)N[C@@H](CCC(N)=O)C(=O)NC1(C(=O)NCCCCNC(N)=NC#N)Cc2ccccc2C1
Second: CC(C)c1ccc2c(CCCCNS(=O)(=O)c3ccccc3)cc(C(=O)O)c-2cc1
The melting point of the first is lower: 122 to 133 °C for the first, 167 to 168 °C for the second.

Compared with `CC(C)(CNS(=O)(=O)c1ccc(-c2ccccn2)s1)N1CCC(Oc2ccc(F)c(F)c2)CC1`, `C/C(=C\Cn1oc(=O)[nH]c1=O)c1cccc(OCc2nc(-c3ccc(OC(F)(F)F)cc3)oc2C)c1` is higher in melting point: 133 to 134 °C for the first, 145 to 146 °C for the second.

First: O=[N+]([O-])c1cc(-c2nc(-c3ccco3)no2)ccc1Cl
Second: O=C(/C=C/c1c(Cl)cccc1Cl)/C=C/c1c(Cl)cccc1Cl
The melting point of the first is lower: 136 to 138 °C for the first, 145 to 146 °C for the second.

Compared with `CCCCc1cn(CCCC)c(=O)n1Cc1ccc(-c2ccccc2-c2nnn[nH]2)nc1`, `CCCCN1C(=O)c2cncnc2N(C(=O)CN2CCN(C)CC2)c2ccccc21` is lower in melting point: 170 to 171 °C for the first, 153 to 154 °C for the second.

Compared with `Nc1ncnc2c1c(-c1ccc(Oc3ccccc3)cc1)cn2CCCCCCCCN1C(=O)c2ccccc2C1=O`, `COC(=O)C[C@H](O)C[C@H](O)CCc1c(-c2ccc(F)cc2)c(-c2ccccc2)c(C(=O)NCc2ccc(F)cc2)n1C(C)C` is lower in melting point: 85 to 86 °C for the first, 49 to 50 °C for the second.

Compared with `NS(=O)(=O)c1ccccc1C(=S)N1CCCC1`, `CCN(CCO)CCCC1CCN(S(=O)(=O)c2ccc(C(F)(F)F)cc2)CC1` is lower in melting point: 186 to 187 °C for the first, 71.3 to 72.7 °C for the second.

First: O=c1[nH][nH]c(=O)c2c(O)c3c(Br)cccc3nc12
Second: Cc1nc(C(=O)Nc2ccc3[nH]cc(C4CCN(C)CC4)c3n2)c(C)s1
The melting point of the first is higher: 280 to 281 °C for the first, 125 to 126 °C for the second.

Compared with `CCOC(=O)CCCOc1ccc([N+](=O)[O-])c(C=C2NC(=O)NC2=O)c1`, `C=CCN(CC=C)c1ccc(C(C)N(O)C(N)=O)cc1` (configuration not stated) is lower in melting point: 131 to 134 °C for the first, 112 to 114 °C for the second.

First: COc1cc(-c2cnc3[nH]cc(C(=O)C4(C)CCCC(C)C4)c3n2)cc(OC)c1OC (configuration not stated)
Second: CN1C(=O)CC[C@]2(C)c3ccc(-c4c(F)c(F)c(Cl)c(F)c4F)cc3CC[C@@H]12
The melting point of the first is higher: 229 to 231 °C for the first, 150 to 151 °C for the second.

`Cn1ncc2c1CCCc1cn[nH]c1-2` showed a melting point of 153 to 155 °C.
